{"source": "patent US20260041744A1", "about": "“Methods for Treating Pompe Disease” (Amicus Therapeutics, Inc., priority 2022, published 2026)", "key": {"[1]": {"test_system": "Gaa KO mice", "assay": "Muscle biomarkers LAMP1, LC3, dysferlin in Gaa KO mice (staining, western blot)", "format": "in vivo, mouse", "description": "The therapeutic effects of ATB200 and miglustat were evaluated and compared against those of Alglucosidase alfa in Gaa KO mice. For the study, male Gaa KO (3-to 4-month old) and age-matched wild-type (WT) mice were used. Alglucosidase alfa was administered via bolus tail vein intravenous (IV) injection. In the co-administration regimen, miglustat was administered via oral gavage (PO) 30 minutes prior to the IV injection of ATB200. Treatment was given biweekly. Treated mice were sacrificed after 14 days from the last administration and various tissues were collected for further analysis. Table 11 summarizes the study design:\nTissue samples were also analyzed for biomarker changes following the methods discussed in: Khanna R, et al. (2012), “The pharmacological chaperone AT2220 increases recombinant human acid α-glucosidase uptake and glycogen reduction in a mouse model of Pompe disease,” Plos One 7(7): e40776; and Khanna, R et al. (2014), “The Pharmacological Chaperone AT2220 Increases the Specific Activity and Lysosomal Delivery of Mutant Acid a-Glucosidase, and Promotes Glycogen Reduction in a Transgenic Mouse Model of Pompe Disease,” PLOS ONE 9(7): e102092.\nSimilarly, intense LC3-positive aggregates in the muscle fibers of untreated Gaa KO mice signify the presence of autophagic zones and autophagy build-up. […] A similar observation was made when the expression of LC3 was assessed using western blot. […] In comparison, the effect of alglucosidase alfa on autophagy was modest.\nDysferlin, a protein involved in membrane repair and whose deficiency/mistrafficking is associated with a number of muscular dystrophies, was also assessed."}, "[2]": {"test_system": "adult subjects with late-onset Pompe disease (LOPD)", "assay": "Study ATB200-03 (PROPEL): PROMIS-Physical Function", "format": "in vivo, human", "details": "for CHG to Week 52 in PROMIS-Physical Function total score, LS Mean / CHG to Week 52 in PROMIS-Physical Function total score, LS Mean Treatment Difference: MMRM; for CHG to Week 52 in PROMIS-Physical Function total score, LS Mean: actual time point of assessments; for PROMIS-Physical Function Short Form 20a total score CHG, LS means (SE) / PROMIS-Physical Function Short Form 20a total score CHG, Difference of LS means (SE) (cipaglucosidase alfa/miglustat − alglucosidase alfa/placebo): Week 52; for CHG to Week 52 in PROMIS-Physical Function total score, LS Mean Treatment Difference: actual time point; for PROMIS physical function outcome: overall and ERT-experienced populations", "description": "The test for the primary endpoint was conducted first at the 1-sided 0.025 significance level, and if significant, the ordered key secondary endpoints were similarly tested at the same significance level. The statistical significance of the key secondary endpoints was interpreted following a hierarchical testing order, each at the 1-sided alpha level of 0.025. […] Primary analyses of efficacy were performed using the mixed-effect model for repeated measures (MMRM) for 6MWD in Intent-to-treat Observed Population (ITT) that includes all available, observed data without any missing data imputation (ITT-OBS) and analysis of covariance (ANCOVA) for all other endpoints in the Intent-to-Treat-Last Observation Carried Forward (ITT-LOCF) Population. A nonparametric randomization based ANCOVA was specified as the first sensitivity analysis for 6MWD and FVC. […] For the purposes of data presentation in this document, 2-sided p-values are reported hereafter, except as otherwise noted."}, "[3]": {"test_system": "adult subjects with late-onset Pompe disease (LOPD)", "assay": "Study ATB200-03 (PROPEL): urinary hexose tetrasaccharide (Hex4/Glc4)", "format": "in vivo, human", "details": "for urinary Hex4 reduction vs alglucosidase alfa: week 52"}, "[4]": {"test_system": "adult subjects with late-onset Pompe disease (LOPD)", "assay": "Study ATB200-03: global test and responder analyses on 6MWD, FVC, MMT", "format": "in vivo, human", "details": "Excluding Subject 4005-2511; change from baseline to Week 52; 2-sided p 0.010", "description": "To support the interpretation of clinical benefit, a composite subject-level response was defined based on the totality of the treatment outcome data. Subjects were classified by an ordinal response variable consisting of significant improvement, moderate improvement, or minor/no improvement based on treatment outcomes.\nThresholds for clinically relevant changes for 6MWD and FVC in Pompe specifically are not well established, however a large body of data exists from other neuromuscular and chronic respiratory diseases, especially interstitial pulmonary fibrosis (IPF). […] Accordingly, these thresholds were applied to analyses of Study ATB200-03 data.\nAdditional post hoc patient-level analyses were conducted using these thresholds for 6MWD (±6%) and FVC (±3%) separately and combined."}, "[5]": {"details": "Week 52-LOCF, ERT-experienced Population"}, "[6]": {"details": "Week 52-LOCF, ERT-naïve Subjects excluding Subject 4005-2511"}, "[7]": {"details": "Week 52-LOCF, ITT excluding Subject 4005-2511"}}, "data": [{"substance": "ATB200/miglustat: two-component therapy: cipaglucosidase alfa (ATB200) administered in conjunction with miglustat (AT2221), a stabilizer of cipaglucosidase alfa", "values": [{"measurement": "LC3 II level / autophagy, western blot", "setting": "[1]; mouse, in vivo", "result": "significant decrease in levels of LC3 II"}, {"measurement": "LAMP1-positive vesicles in muscle fibers", "setting": "[1]; vastus lateralis", "result": "led to more fibers with normalized LAMP1 level"}, {"measurement": "LC3-positive aggregates in muscle fibers", "setting": "[1]; vs alglucosidase alfa", "result": "preferentially reduced"}, {"measurement": "dysferlin localisation in muscle fibers", "setting": "[1]; vs alglucosidase alfa", "result": "able to restore dysferlin to the sarcolemma in a greater number of muscle fibers"}, {"measurement": "PROMIS-Physical Function Short Form 20a total score Absolute Value, Median", "setting": "[2]; Baseline, ITT, ERT-naïve Subjects excluding Subject 4005-2511", "result": 76.00}, {"measurement": "PROMIS-Physical Function Short Form 20a total score Absolute Value, Mean", "setting": "[2]; Baseline, ITT, ERT-naïve Subjects excluding Subject 4005-2511, score 20 to 100, higher = less impact", "result": 74.65}, {"measurement": "mean (SD) change in PROMIS-Physical Function total score from baseline to Week 52", "setting": "[2]; ERT-experienced Population", "result": "1.8 (7.18)"}, {"measurement": "mean (SD) change in PROMIS-Physical Function total score from baseline to Week 52", "setting": "[2]; ERT-naïve excluding Subject 4005-2511", "result": "2.5 (8.62)"}, {"measurement": "Change in PROMIS-Physical Function total score baseline to Week 52, LS means (SE) from ANCOVA", "setting": "[2]; ITT-LOCF, ERT-naïve Subjects excluding Subject 4005-2511", "result": "1.87 (1.917)"}, {"measurement": "CHG to Week 52 in PROMIS-Physical Function total score, LS Mean", "setting": "[2]; ITT-OBS excluding Subject 4005-2511 (overall)", "result": 2.2}, {"measurement": "CHG to Week 52 in PROMIS-Physical Function total score, LS Mean", "setting": "[2]; ITT-OBS excluding Subject 4005-2511, ERT-naïve Subjects", "result": 2.6}, {"measurement": "CHG to Week 52 in PROMIS-Physical Function total score, LS Mean", "setting": "[2]; ITT-OBS, ERT-experienced Subjects", "result": 2.0}, {"measurement": "PROMIS-Physical Function Short Form 20a total score Absolute Value, Mean (SD)", "setting": "[2]; [5]", "result": "66.19 (12.325)"}, {"measurement": "PROMIS-Physical Function Short Form 20a total score Absolute Value, Median", "setting": "[2]; [5]", "result": 66.00}, {"measurement": "PROMIS-Physical Function Short Form 20a total score CHG, Mean (SD)", "setting": "[2]; [5]", "result": "1.76 (7.179)"}, {"measurement": "PROMIS-Physical Function Short Form 20a total score CHG, Median", "setting": "[2]; [5]", "result": 0.50}, {"measurement": "PROMIS-Physical Function Short Form 20a total score Absolute Value, Mean", "setting": "[2]; [6]", "result": 77.15}, {"measurement": "PROMIS-Physical Function Short Form 20a total score Absolute Value, Median", "setting": "[2]; [6]", "result": 77.50}, {"measurement": "PROMIS-Physical Function Short Form 20a total score CHG (change from baseline), Mean", "setting": "[2]; [6]", "result": 2.50}, {"measurement": "PROMIS-Physical Function Short Form 20a total score CHG (change from baseline), Median", "setting": "[2]; [6]", "result": 0.00}, {"measurement": "PROMIS-Physical Function Short Form 20a total score Absolute Value, Mean (SD)", "setting": "[2]; [7]", "result": "68.80 (12.954)"}, {"measurement": "PROMIS-Physical Function Short Form 20a total score Absolute Value, Median", "setting": "[2]; [7]", "result": 68.00}, {"measurement": "PROMIS-Physical Function Short Form 20a total score CHG, Mean (SD)", "setting": "[2]; [7]", "result": "1.94 (7.498)"}, {"measurement": "PROMIS-Physical Function Short Form 20a total score CHG, Median", "setting": "[2]; [7]", "result": 0.00}, {"measurement": "PROMIS-Physical Function Short Form 20a total score CHG, LS means (SE)", "setting": "[2]; ANCOVA, ITT-LOCF excluding Subject 4005-2511", "result": "1.98 (0.921)"}, {"measurement": "PROMIS-Physical Function Short Form 20a total score CHG, Difference of LS means (SE) (cipaglucosidase alfa/miglustat − alglucosidase alfa/placebo)", "setting": "[2]; ANCOVA, ITT-LOCF excluding Subject 4005-2511, 2-sided p 0.276", "result": "1.87 (1.706)"}, {"measurement": "PROMIS-Physical Function Short Form 20a total score CHG, LS means (SE)", "setting": "[2]; ANCOVA, ITT-LOCF, ERT-experienced Population", "result": "1.90 (1.071)"}, {"measurement": "PROMIS-Physical Function Short Form 20a total score CHG, Difference of LS means (SE) (cipaglucosidase alfa/miglustat − alglucosidase alfa/placebo)", "setting": "[2]; ANCOVA, ITT-LOCF, ERT-experienced Population, 2-sided p 0.110", "result": "3.14 (1.948)"}, {"measurement": "LS Mean Treatment Difference (SE), CHG to Week 52 in PROMIS-Physical Function total score", "setting": "[2]; cipaglucosidase alfa/miglustat − alglucosidase alfa/placebo, ITT-LOCF, ANCOVA, 2-sided p 0.426", "result": "1.37 (1.714)"}, {"measurement": "Change in PROMIS-Physical Function total score baseline to Week 52, Difference of LS means (SE) from ANCOVA", "setting": "[2]; cipaglucosidase alfa/miglustat − alglucosidase alfa/placebo, ITT-LOCF, ERT-naïve Subjects excluding Subject 4005-2511", "result": "−5.09 (4.288)"}, {"measurement": "CHG to Week 52 in PROMIS-Physical Function total score, LS Mean Treatment Difference", "setting": "[2]; cipaglucosidase alfa/miglustat − alglucosidase alfa/placebo, ITT-OBS excluding Subject 4005-2511 (overall)", "result": 2.5}, {"measurement": "CHG to Week 52 in PROMIS-Physical Function total score, LS Mean Treatment Difference", "setting": "[2]; cipaglucosidase alfa/miglustat − alglucosidase alfa/placebo, ITT-OBS excluding Subject 4005-2511, ERT-naïve Subjects", "result": "−3.1"}, {"measurement": "CHG to Week 52 in PROMIS-Physical Function total score, LS Mean Treatment Difference", "setting": "[2]; cipaglucosidase alfa/miglustat − alglucosidase alfa/placebo, ITT-OBS, ERT-experienced Subjects", "result": 3.5}, {"measurement": "PROMIS physical function outcome", "setting": "[2]", "result": "PROMIS physical function numerically favored ATB200/miglustat treatment"}, {"measurement": "PROMIS physical function outcome", "setting": "[2]; listed as AT-GAA", "result": "improved numerically more than alglucosidase alfa treated patients"}, {"measurement": "mean (SD) change in PROMIS-Physical Function total score from baseline to Week 52", "setting": "[2]; overall population", "result": "1.9 (7.50)"}, {"measurement": "mean change in urine Hex-4 after 52 weeks", "setting": "[3]; combined ERT switch and ERT naïve population", "result": "−31.5", "unit": "%"}, {"measurement": "urinary Hex4 reduction vs alglucosidase alfa", "setting": "[3]", "result": "reductions in CK and urinary Hex4 were significantly greater with ATB200/miglustat treatment at week 52"}, {"measurement": "urinary Hex4 reduction vs alglucosidase alfa", "setting": "[3]; listed as AT-GAA", "result": "significantly favored AT-GAA compared to alglucosidase alfa"}, {"measurement": "urinary Hex4 reduction vs alglucosidase alfa", "setting": "[3]; listed as cipaglucosidase alfa/miglustat", "result": "reductions in biomarkers of muscle damage (CK) and disease substrate (Hex4) also were significantly greater with cipaglucosidase alfa/miglustat compared with alglucosidase alfa"}, {"measurement": "Wilcoxon rank sum test on sum of ranks for 6MWD and % predicted FVC: Mean Score", "setting": "[4]", "result": 66.5}, {"measurement": "Wilcoxon rank sum test on sum of ranks for 6MWD and % predicted FVC: Sum of Scores", "setting": "[4]", "result": 5587.5}]}]}
